The results in this text go back to ChEMBL document CHEMBL1201862, “PubChem BioAssay data set” (2004).

Each structure is given as a SMILES string.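 1) Cells in 96-well plates. 2) Compound, 48 h, 5 concentrations. 3) Linear interpolation between surrounding doses. 4) Unreached endpoint = highest concentration. At the GI50, growth is halved.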 Active and inactive are the calls of the source. Cut-off read from the data, not from the text of the source: active = GI50 up to about 1.1 µM and inactive = higher. Numbered stars: 1 amine (or outer) side, 2 acyl side, 3 side chain; on linkers, the order of the positions; unused ones are H or OH. Square brackets hold non-standard residues; d marks the D form. Peptide text beside a SMILES is read from it. X55 = CC[C@H](C)[C@H](OC(=O)[C@@H](C)[C@@H](CC)N[*:1])C(=O)[*:2]; X31 = C[C@H](N[*:1])C(=O)C(C)(C)C(=O)[*:2]; NMeY = CN[C@@H](Cc1ccc(O)cc1)C(=O)O; NMeL = CN[C@@H](CC(C)C)C(=O)O; NMeV = CN[C@H](C(=O)O)C(C)C

What all share (assay): DTP human tumour cell line panel, 48 h
Assay [1] concerns A498.
For assay [2], the system named is SF-539.
The test system of assay [3] is SF-268.
The test system of assay [4] is PC-3.
The test system of assay [5] is NCI-H226.
Assay [6] relates to NCI/ADR-RES.
The test system of assay [7] is CCRF-CEM.
Assay [8] concerns HOP-62.
The subject of assay [9] is RXF 393.
Assay [10] concerns HT-29.
Assay [11] concerns HCT-116.
The test system of assay [12] is SK-MEL-2.
In assay [13] the test system is SK-MEL-5.
For assay [14], the system named is COLO 205.
Assay [15] concerns EKVX.
In assay [16] the test system is SNB-75.
The test system of assay [17] is 786-0.
For assay [18], the system named is SF-295.
The subject of assay [19] is CAKI-1.
Assay [20] has as its system M14.

For orientation: GI50 means the concentration that inhibits growth by half.

In the case of `O=C1c2ccccc2-n2c1nc1cc(Cl)ccc1c2=O`, the GI50 in assay [1] is > 100 µM (inactive); in [2] it was > 100 µM (inactive); in assay [3] it was 61.9 µM (inactive); in assay [4], > 100 µM (inactive); in [5], > 100 µM (inactive); in [6], > 100 µM (inactive). In addition, the GI50 is 3.84 µM (inactive) in [7]; 81.7 µM (inactive) in assay [8]; 55.7 µM (inactive) in [9]; 61.9 µM (inactive) in assay [10]; > 100 µM (inactive) in assay [11]; 43.9 µM (inactive) in assay [12]. Moreover, the GI50 in assay [13] was 20 µM (inactive); in assay [14], > 100 µM (inactive); in [15] it was > 100 µM (inactive); in [16] it was 85.9 µM (inactive); in [17] it was 89.7 µM (inactive); in assay [18], 50.7 µM (inactive). The GI50 in assay [19] was 36.8 µM (inactive); in assay [20] it was 15.8 µM (inactive).

As to `CCOc1cc(NC(C)=O)ccc1C(=O)NN1C(=O)CSC1c1ccccc1` (centres undefined), the GI50 in [1] was > 100 µM (inactive); in [2], > 100 µM (inactive); in assay [3], > 100 µM (inactive); in assay [4] it was 78.7 µM (inactive); in assay [5], > 100 µM (inactive); in assay [6], 35.7 µM (inactive). The GI50 in assay [7] was 37.8 µM (inactive); in assay [8], > 100 µM (inactive); in assay [9], 74.6 µM (inactive); in assay [10], > 100 µM (inactive); in assay [11], > 100 µM (inactive); in [12], > 100 µM (inactive). Moreover, the GI50 is 34.4 µM (inactive) in assay [13]; 75 µM (inactive) in [14]; 91 µM (inactive) in [15]; 95.3 µM (inactive) in [16]; > 100 µM (inactive) in [17]; 45.2 µM (inactive) in assay [18]. For the same compound, the GI50 in assay [19] and in [20] was > 100 µM (inactive) each time.

As for `COC(=O)c1cc(C)ccc1CC(Cc1ccc(C)cc1)C(=O)OC` (centres undefined), the GI50 in assay [1] is 72.6 µM (inactive); in assay [2], 27.5 µM (inactive); in [3], 7.52 µM (inactive); in assay [4], 37.8 µM (inactive); in assay [5] it was > 47.4 µM (inactive); in assay [6] it was 23.7 µM (inactive). Moreover, the GI50 in assay [7] is 62.8 µM (inactive); in assay [8], > 100 µM (inactive); in [9] it was 2.87 µM (inactive); in assay [10], 5.58 µM (inactive); in [11] it was 10.5 µM (inactive); in [12] it was 25.1 µM (inactive). The GI50 was 3.48 µM (inactive) in assay [13]; 14.8 µM (inactive) in assay [14]; 11.1 µM (inactive) in assay [15]; 6.78 µM (inactive) in assay [16]; 25.7 µM (inactive) in assay [17]; 27.3 µM (inactive) in assay [18]. For the same compound, the GI50 in assay [19] is 36.6 µM (inactive); in assay [20], 20.9 µM (inactive).

With `COC(=O)[C@@H]1[C@H]2CC[C@]3(C)[C@@H](OC(C)=O)CC[C@H]3[C@@H]2CC[C@H]1C(C)=O`, the GI50 in [1], in assay [2], in assay [3], in [4], in assay [5] and in assay [6] was > 100 µM (inactive) each time. For the same compound, the GI50 in [7], in [8], in [9], in assay [10], in assay [11] and in [12] was > 100 µM (inactive) in each case. For the same compound, the GI50 in assay [13], in assay [14], in [15], in assay [16], in [17] and in [18] was > 100 µM (inactive) each time. In addition, the GI50 in assay [19] and in assay [20] was > 100 µM (inactive) throughout.

As to `CC1=C(C(=O)NC(C)(C)C)CC(C(=O)NC(C)(C)C)C(C)N1` (centres undefined), the GI50 is 73.1 µM (inactive) in assay [1]; > 100 µM (inactive) in [2]; > 100 µM (inactive) in assay [3]; > 100 µM (inactive) in assay [4]; > 100 µM (inactive) in assay [5]; > 100 µM (inactive) in assay [6]. Moreover, the GI50 was 61 µM (inactive) in assay [7]; > 100 µM (inactive) in assay [8]; > 100 µM (inactive) in assay [9]; > 100 µM (inactive) in assay [10]; > 100 µM (inactive) in assay [11]; > 100 µM (inactive) in [12]. The GI50 in [13] is > 100 µM (inactive); in assay [14], > 100 µM (inactive); in assay [15] it was > 100 µM (inactive); in assay [16], 40.4 µM (inactive); in assay [17], > 100 µM (inactive); in assay [18], > 100 µM (inactive). Besides, the GI50 in assay [19] and in assay [20] was > 100 µM (inactive) in each case.

`O=c1[nH]c(=O)n(C2OC(CO)C(O)C2O)cc1Oc1ccccc1` (centres undefined): the GI50 in assay [1], in assay [2], in assay [3], in assay [4], in [5] and in assay [6] was > 100 µM (inactive) in each case. In addition, the GI50 in [7], in [8], in assay [9], in [10], in assay [11] and in assay [12] was > 100 µM (inactive) throughout. The GI50 in assay [13], in assay [14], in assay [15], in [16], in assay [17] and in assay [18] was > 100 µM (inactive) throughout. The GI50 in assay [19] and in assay [20] was > 100 µM (inactive) in each case.

In the case of `CCOC(=O)C(C)c1nc2cc(F)c(N3CCOCC3)cc2[nH]c1=O` (centres undefined), the GI50 in [1] was > 100 µM (inactive); in assay [2] it was > 100 µM (inactive); in assay [3], > 100 µM (inactive); in [4], 71.9 µM (inactive); in assay [5], > 100 µM (inactive); in assay [6], > 100 µM (inactive). Moreover, the GI50 in assay [7], in assay [8], in [9], in assay [10], in [11] and in assay [12] was > 100 µM (inactive) in each case. For the same compound, the GI50 was 54.1 µM (inactive) in [13]; > 100 µM (inactive) in assay [14]; > 100 µM (inactive) in assay [15]; > 100 µM (inactive) in assay [16]; > 100 µM (inactive) in assay [17]; > 100 µM (inactive) in assay [18]. Also, the GI50 in assay [19] and in [20] was > 100 µM (inactive) each time.

`COc1ccc(OC)c2c1C1CCC(=O)N1CN2C(C)=O` (centres undefined): the GI50 was > 100 µM (inactive) in assay [1]; > 100 µM (inactive) in assay [2]; 75.5 µM (inactive) in assay [3]; > 100 µM (inactive) in assay [4]; > 100 µM (inactive) in assay [5]; > 100 µM (inactive) in [6]. Also, the GI50 in assay [7], in assay [8], in [9], in [10], in assay [11] and in [12] was > 100 µM (inactive) each time. Moreover, the GI50 in assay [13], in assay [14], in [15], in assay [16], in assay [17] and in [18] was > 100 µM (inactive) throughout. Also, the GI50 in assay [19] and in [20] was > 100 µM (inactive) each time.

`CN(C)c1ccc(/C=N/NC(=S)Nc2ccccc2)cc1`: the GI50 in assay [1], in [2], in [3], in assay [4], in assay [5] and in [6] was > 100 µM (inactive) in each case. The GI50 in assay [7] is > 100 µM (inactive); in assay [8], 96.4 µM (inactive); in [9], > 100 µM (inactive); in assay [10] it was > 100 µM (inactive); in [11], > 100 µM (inactive); in [12] it was > 100 µM (inactive). The GI50 in [13], in assay [14], in assay [15], in assay [16], in assay [17] and in assay [18] was > 100 µM (inactive) throughout. In addition, the GI50 in [19] and in assay [20] was > 100 µM (inactive) each time.

For the compound `CC[C@H](C)[C@@H]1OC(=O)[C@@H](C)[C@@H](CC)NC(=O)[C@H](C)NC(=O)C(C)(C)C(=O)[C@H](C)NC(=O)[C@H](Cc2ccc(OC)cc2)N(C)C(=O)[C@H](C(C)C)N(C)C(=O)CNC(=O)[C@H](CC(C)C)N(C)C(=O)CNC1=O` [DOLASTATIN 11] (cyclo(A[X55]G[NMeL]G[NMeV][NMeY](Me)[X31])), the GI50 in assay [1] was 0.118 µM (active); in [2], 0.0122 µM (active); in assay [3], 0.082 µM (active); in [4] it was 0.0849 µM (active); in assay [5], 0.137 µM (active); in assay [6], 0.802 µM (active). Moreover, the GI50 is 0.0274 µM (active) in assay [7]; 0.0497 µM (active) in assay [8]; 0.0223 µM (active) in assay [9]; 0.0264 µM (active) in [10]; 0.154 µM (active) in assay [11]; 0.0787 µM (active) in assay [12]. The GI50 in [13] was 0.0247 µM (active); in assay [15], 0.102 µM (active); in assay [16], 0.0847 µM (active); in assay [17], 0.0304 µM (active); in [18], 0.0838 µM (active); in [19], 0.034 µM (active). Further, the GI50 in assay [20] is < 0.0148 µM (active).
